Results as given in US20150005288A1, “SUBSTITUTED PHENYLIMIDAZOPYRAZOLES AND USE THEREOF” (Bayer Intellectual Property GmbH, priority 2012, published 2015).

Each compound was assayed against T1, intracellular domain of human Tie2 (GST fusion protein) (Homo sapiens, UniProt Q02763) (assay: Tie2 kinase assay (Tie2-TR-FRET)). Conditions: ATP concentration 1 mM, in some cases means of several independent determinations.
T1 construct: intracellular domain of human Tie2 (amino acids 776-1124); made in house; host or cells: Baculovirus-infected insect cells (Hi5)
T1 sequence (Q02763 776-1124): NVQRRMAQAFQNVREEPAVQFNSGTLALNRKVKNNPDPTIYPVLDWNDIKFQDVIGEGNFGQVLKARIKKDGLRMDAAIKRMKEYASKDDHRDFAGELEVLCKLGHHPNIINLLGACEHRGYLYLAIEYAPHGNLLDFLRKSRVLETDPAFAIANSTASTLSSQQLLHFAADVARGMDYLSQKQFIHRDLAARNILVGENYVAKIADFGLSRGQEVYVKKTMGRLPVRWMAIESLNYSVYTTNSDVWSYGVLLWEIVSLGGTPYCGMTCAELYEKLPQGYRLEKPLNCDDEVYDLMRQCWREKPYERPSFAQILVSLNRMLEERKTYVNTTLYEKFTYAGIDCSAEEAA
Format: biochemical
Summary of the method: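 High ATP (1 mM final) with 1 μM biotin-peptide substrate; reaction 60 min at 22 °C after 15 min compound pre-binding to GST-Tie2 (aa 776-1124) in HEPES pH 7 with Mg/Mn. Phosphopeptide detected by TR-FRET emission ratio 665/620 nm. IC50 from 4-parameter fit over 20 μM to 0.073 nM, duplicates.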
N#Cc1cc(C(=O)Nc2cccc(-n3ccn4nc(-c5cccnc5)cc34)c2)cc(S(F)(F)(F)(F)F)c1 [Example 87, 3-Cyano-5-(pentafluoro-λ^6-sulphanyl)-N-{3-[6-(pyridin-3-yl)-1H-imidazo[1,2-b]pyrazol-1-yl]-phenyl}benzamide] showed an IC50 of 980 nM. For Cc1ccc(NC(=O)c2cc(N3CCN(C)CC3)cc(C(C)(C)C)c2)cc1-n1ccn2nc(-c3cn[nH]c3)cc12 [Example 8, 3-tert-Butyl-5-(4-methylpiperazin-1-yl)-N-{4-methyl-3-[6-(1H-pyrazol-4-yl)-1H-imidazo[1,2-b]-pyrazol-1-yl]phenyl}benzamide], the IC50 was 1.9 nM. For Cc1ccc(NC(=O)c2cc(Cl)cc(S(F)(F)(F)(F)F)c2)cc1-n1ccn2nc(-c3cccnc3)cc12 [Example 27, 3-Chloro-N-{4-methyl-3-[6-(pyridin-3-yl)-1H-imidazo[1,2-b]pyrazol-1-yl]phenyl}-5-(pentafluoro-λ^6-sulphanyl)benzamide], the IC50 was 3.1 nM. Compound COCCOCc1cc(C(=O)Nc2cc(-n3ccn4nc(-c5cccnc5)cc34)c(C)cc2C)cc(S(F)(F)(F)(F)F)c1 [Example 155, N-{2,4-Dimethyl-5-[6-(pyridin-3-yl)-1H-imidazo[1,2-b]pyrazol-1-yl]phenyl}-3-[(2-methoxy-ethoxy)methyl]-5-(pentafluoro-λ^6-sulphanyl)benzamide] has an IC50 of 0.7 nM. With COC(=O)Cc1cc(C(=O)Nc2cc(-n3ccn4nc(-c5cccnc5)cc34)c(C)cc2C)cc(S(F)(F)(F)(F)F)c1 [Example 152, Methyl [3-({2,4-dimethyl-5-[6-(pyridin-3-yl)-1H-imidazo[1,2-b]pyrazol-1-yl]phenyl}carbamoyl)-5-(pentafluoro-λ^6-sulphanyl)phenyl]acetate] the IC50 was 0.4 nM. Work on Cc1cc(C)c(-n2ccn3nc(-c4cncnc4)cc23)cc1NC(=O)c1cc(Br)cc(S(F)(F)(F)(F)F)c1 [Example 165, 3-Bromo-N-{2,4-dimethyl-5-[6-(pyrimidin-5-yl)-1H-imidazo[1,2-b]pyrazol-1-yl]phenyl}-5-(pentafluoro-λ^6-sulphanyl)benzamide] yielded an IC50 of 1.7 nM. In the case of Cc1cc(C)c(-n2ccn3nc(-c4cccnc4)cc23)cc1NC(=O)c1cccc(OCCN(C)C)c1 [Example 137, 3-[2-(Dimethylamino)ethoxy]-N-{2,4-dimethyl-5-[6-(pyridin-3-yl)-1H-imidazo[1,2-b]pyrazol-1-yl]phenyl}benzamide], the IC50 is reported as 409 nM. In the case of Cc1cc(C)c(-n2ccn3nc(-c4cccnc4)cc23)cc1NC(=O)c1cc(Cl)nc(C(C)(C)C)c1 [Example 115, 2-tert-Butyl-6-chloro-N-{2,4-dimethyl-5-[6-(pyridin-3-yl)-1H-imidazo[1,2-b]pyrazol-1-yl]-phenyl}isonicotinamide], the IC50 is reported as 0.8 nM. Compound Cc1cc(C)c(-n2ccn3nc(-c4cccnc4)cc23)cc1NC(=O)c1cc(C(C)(C)O)cc(S(F)(F)(F)(F)F)c1 [Example 148, N-{2,4-Dimethyl-5-[6-(pyridin-3-yl)-1H-imidazo[1,2-b]pyrazol-1-yl]phenyl}-3-(2-hydroxypropan-2-yl)-5-(pentafluoro-λ^6-sulphanyl)benzamide] has an IC50 of 0.4 nM. In the case of Cc1c(NC(=O)c2cc(C#N)cc(S(F)(F)(F)(F)F)c2)cccc1-n1ccn2nc(-c3cccnc3)cc12 [Example 80, 3-Cyano-N-{2-methyl-3-[6-(pyridin-3-yl)-1H-imidazo[1,2-b]pyrazol-1-yl]phenyl}-5-(pentafluoro-λ^6-sulphanyl)benzamide], the IC50 is reported as 725 nM. In the case of Cc1cc(C)c(-n2ccn3nc(-c4cccnc4)cc23)cc1NC(=O)c1cc(CC(C)(C)O)cc(S(F)(F)(F)(F)F)c1 [Example 154, N-{2,4-Dimethyl-5-[6-(pyridin-3-yl)-1H-imidazo[1,2-b]pyrazol-1-yl]phenyl}-3-(2-hydroxy-2-methylpropyl)-5-(pentafluoro-λ^6-sulphanyl)benzamide], the IC50 is reported as 0.4 nM. Work on Cc1ccc(NC(=O)c2cc(C(F)(F)F)cc(C(F)(F)F)c2)cc1-n1ccn2nc(-c3cccnc3)cc12 [Example 43, N-{4-Methyl-3-[6-(pyridin-3-yl)-1H-imidazo[1,2-b]pyrazol-1-yl]phenyl}-3,5-bis(trifluoromethyl)-benzamide] yielded an IC50 of 56 nM. Work on Cc1cc(C)c(-n2ccn3nc(-c4cccnc4)cc23)cc1NC(=O)c1cccc(OC(F)F)c1 [Example 128, N-{2,4-Dimethyl-5-[6-(pyridin-3-yl)-1H-imidazo[1,2-b]pyrazol-1-yl]phenyl}-3-(difluoromethoxy)-benzamide] yielded an IC50 of 43 nM. For Cc1ccc(NC(=O)c2cc(N(C)CCCN(C)C)cc(C(F)(F)F)c2)cc1-n1ccn2nc(-c3cccnc3)cc12 [Example 42, 3-{[3-(Dimethylamino)propyl](methyl)amino}-N-{4-methyl-3-[6-(pyridin-3-yl)-1H-imidazo-[1,2-b]pyrazol-1-yl]phenyl}-5-(trifluoromethyl)benzamide], the IC50 was 1.5 nM. In the case of Cc1cc(C)c(-n2ccn3nc(-c4cccnc4)cc23)cc1NC(=O)c1cccc(OC(C)C)c1 [Example 132, N-{2,4-Dimethyl-5-[6-(pyridin-3-yl)-1H-imidazo[1,2-b]pyrazol-1-yl]phenyl}-3-isopropoxybenzamide], the IC50 is reported as 4.6 nM. Cc1ccc(NC(=O)c2cc(C(C)(C)C)cc(C(C)(C)O)c2)cc1-n1ccn2nc(-c3cccnc3)cc12 [Example 49, 3-tert-Butyl-5-(2-hydroxypropan-2-yl)-N-{4-methyl-3-[6-(pyridin-3-yl)-1H-imidazo[1,2-b]-pyrazol-1-yl]phenyl}benzamide] was tested, and the IC50 was 0.3 nM. With Cc1ccc(NC(=O)c2cc(O)cc(S(F)(F)(F)(F)F)c2)cc1-n1ccn2nc(-c3cccnc3)cc12 [Example 20, 3-Hydroxy-N-{4-methyl-3-[6-(pyridin-3-yl)-1H-imidazo[1,2-b]pyrazol-1-yl]phenyl}-5-(pentafluoro-λ^6-sulphanyl)benzamide] the IC50 was 3.1 nM. Cc1ccc(NC(=O)c2cc(C#N)nc(C(C)(C)C)c2)cc1-n1ccn2nc(-c3cccnc3)cc12 [Example 93, 2-tert-Butyl-6-cyano-N-{4-methyl-3-[6-(pyridin-3-yl)-1H-imidazo[1,2-b]pyrazol-1-yl]phenyl}-isonicotinamide] showed an IC50 of 19 nM. Work on Cc1cc(C)c(-n2ccn3nc(-c4cccnc4)cc23)cc1NC(=O)c1cc(CC(=O)OC(C)(C)C)cc(S(F)(F)(F)(F)F)c1 [Example 150, tert-Butyl [3-({2,4-dimethyl-5-[6-(pyridin-3-yl)-1H-imidazo[1,2-b]pyrazol-1-yl]phenyl}-carbamoyl)-5-(pentafluoro-λ^6-sulphanyl)phenyl]acetate] yielded an IC50 of 2.4 nM. Work on N#Cc1cc(C(=O)Nc2cccc(-n3ccn4nc(-c5cccnc5)cc34)c2O)cc(S(F)(F)(F)(F)F)c1 [Example 83, 3-Cyano-N-{2-hydroxy-3-[6-(pyridin-3-yl)-1H-imidazo[1,2-b]pyrazol-1-yl]phenyl}-5-(pentafluoro-λ^6-sulphanyl)benzamide] yielded an IC50 of 110 nM. For Cc1cc(C)c(-n2ccn3nc(-c4cccnc4)cc23)cc1NC(=O)c1cc(CC(N)=O)cc(S(F)(F)(F)(F)F)c1 [Example 153, 3-(2-Amino-2-oxoethyl)-N-{2,4-dimethyl-5-[6-(pyridin-3-yl)-1H-imidazo[1,2-b]pyrazol-1-yl]-phenyl}-5-(pentafluoro-λ^6-sulphanyl)benzamide], the IC50 was 0.3 nM. For Cc1ccc(NC(=O)c2cccc(OCC(C)C)c2)cc1-n1ccn2nc(-c3cccnc3)cc12 [Example 62, 3-(2-Methylpropoxy)-N-{4-methyl-3-[6-(pyridin-3-yl)-1H-imidazo[1,2-b]pyrazol-1-yl]phenyl}-benzamide], the IC50 was 500 nM. Cc1ccc(NC(=O)c2cc(Br)cc(S(F)(F)(F)(F)F)c2)cc1-n1ccn2nc(-c3cncs3)cc12 [Example 175, 3-Bromo-N-{4-methyl-3-[6-(1,3-thiazol-5-yl)-1H-imidazo[1,2-b]pyrazol-1-yl]phenyl}-5-(pentafluoro-λ^6-sulphanyl)benzamide] was tested, and the IC50 was 3.2 nM. N#Cc1cc(C(=O)Nc2ccc(F)c(-n3ccn4nc(-c5cccnc5)cc34)c2)cc(S(F)(F)(F)(F)F)c1 [Example 71, 3-Cyano-N-{4-fluoro-5-[6-(pyridin-3-yl)-1H-imidazo[1,2-b]pyrazol-1-yl]phenyl}-3-(pentafluoro-λ^6-sulphanyl)benzamide] was tested, and the IC50 was 34 nM. For N#Cc1cc(C(=O)Nc2ccc(Cl)c(-n3ccn4nc(-c5cccnc5)cc34)c2)cc(S(F)(F)(F)(F)F)c1 [Example 97, N-{4-Chloro-3-[6-(pyridin-3-yl)-1H-imidazo[1,2-b]pyrazol-1-yl]phenyl}-3-cyano-5-(pentafluoro-λ^6-sulphanyl)benzamide], the IC50 was 9.2 nM. Cc1ccc(NC(=O)c2cccc(C(F)(F)F)c2)cc1-n1ccn2nc(-c3cn[nH]c3)cc12 [Example 5, N-{4-Methyl-3-[6-(1H-pyrazol-4-yl)-1H-imidazo[1,2-b]pyrazol-1-yl]phenyl}-3-(trifluoromethyl)-benzamide] showed an IC50 of 380 nM. For Cc1ccc(NC(=O)c2cccc(C(F)(F)F)c2F)cc1-n1ccn2nc(-c3cccnc3)cc12 [Example 46, 2-Fluoro-N-{4-methyl-3-[6-(pyridin-3-yl)-1H-imidazo[1,2-b]pyrazol-1-yl]phenyl}-3-(trifluoromethyl)benzamide], the IC50 was 980 nM. For Cc1cc(C)c(-n2ccn3nc(-c4cccnn4)cc23)cc1NC(=O)c1cccc(S(F)(F)(F)(F)F)c1 [Example 169, N-{2,4-Dimethyl-5-[6-(pyridazin-3-yl)-1H-imidazo[1,2-b]pyrazol-1-yl]phenyl}-3-(pentafluoro-λ^6-sulphanyl)benzamide], the IC50 was 1 nM. Cc1cc(C)c(-n2ccn3nc(-c4cccnc4)cc23)cc1NC(=O)c1cccc(OC(F)(F)C(F)F)c1 [Example 129, N-{2,4-Dimethyl-5-[6-(pyridin-3-yl)-1H-imidazo[1,2-b]pyrazol-1-yl]phenyl}-3-(1,1,2,2-tetra-fluoroethoxy)benzamide] showed an IC50 of 3.2 nM.
